Data as given in PubChem BioAssay AID1996.
Values after ≈ are worked out from the molar mass of the structure shown.

Conditions: buffer; pH 7.4; 200.0 µM

SMILES	solubility kinetic
CSc1ccc(NC(=O)/C=C/C(=O)O)cc1	30.8 µg/mL (≈ 130 µM)
COc1ccc(CNC(=S)Nc2ccccc2Cl)cc1	12 µg/mL (≈ 39.1 µM)
COc1ccc(NC(=S)N2CCCCC2c2cccnc2)cc1 (stereo not given)	49 µg/mL (≈ 150 µM)
COc1ccc(S(=O)(=O)N2CCN(C(=O)c3cc(C)nc4ccccc34)CC2)cc1OC	> 68.3 µg/mL
COc1ccc(C(=O)NCCN2CCCC2)cc1[N+](=O)[O-]	> 44 µg/mL
CC(C)CCC(CCN1CCCC1)c1ccc2c(c1)OCO2.O=C(O)C(=O)O (stereo not given)	48.4 µg/mL
CNC(=O)c1cc2c(cn1)[nH]c1ccccc12	27.5 µg/mL (≈ 122 µM)
COc1ccc(-c2ccccc2)cc1NC(=O)c1cccs1	1.2 µg/mL (≈ 3.88 µM)
O=C(O)CCC(=O)Nc1nc2ccc([N+](=O)[O-])cc2s1	> 44.3 µg/mL
O=C(COC(=O)Cc1ccc(S(=O)(=O)N2CCOCC2)s1)Nc1ccccc1Cl	> 68.8 µg/mL
CNCCc1ccc(OC)c(OC)c1	> 29.3 µg/mL
CCSc1nc2sc3c(c2c(=O)n1-c1ccc(C)cc1)CCN(C)C3	35.6 µg/mL (≈ 95.8 µM)
CC(NC(=O)CCC(=O)c1ccccc1)c1ccc(F)cc1 (stereo not given)	> 44.9 µg/mL
CC(=O)N/C(=N/c1nc(C)cc(C)n1)Nc1ccc(F)cc1F	1.6 µg/mL (≈ 5.01 µM)
Nc1ncnc(Sc2ncccn2)c1[N+](=O)[O-]	> 37.5 µg/mL
CCOc1ccc(NC(=O)NCc2ccccn2)cc1	35.6 µg/mL (≈ 131 µM)
COc1ccc(NC(=O)CNC(=O)Cc2ccccc2)cc1OC	> 49.3 µg/mL
Cc1cc(OCC(O)CN(C)C(=O)C(C)Oc2ccccc2)ccc1Cl (stereo not given)	45.6 µg/mL (≈ 121 µM)
Cc1ccc(C(=O)O/N=C(\N)c2ccc(C(F)(F)F)cn2)cc1	< 0.2 µg/mL
Cn1c(=O)n(C)c2cc(NC(=O)COc3ccccc3)ccc21	> 46.7 µg/mL
COc1ccc(C)cc1NC(=S)NC(C)c1ccc(OC)c(OC)c1 (stereo not given)	13.3 µg/mL (≈ 36.9 µM)
COc1ccccc1S(=O)(=O)N1CCNC(=O)C1	> 40.5 µg/mL

SMILES	solubility kinetic
COc1cc(CC(=O)OCC(=O)c2ccc[nH]2)cc(OC)c1OC	> 50 µg/mL
Cc1ccc(C(=O)NCCCNC(=O)c2ccco2)cn1	34.3 µg/mL (≈ 119 µM)
COC(=O)c1cc2ccccc2n1S(=O)(=O)c1ccccc1	< 0.7 µg/mL
Cc1onc(-c2c(Cl)cccc2Cl)c1C(=O)NN1CCCCCC1	> 55.2 µg/mL
O=C(COc1ccc([N+](=O)[O-])cc1Cl)Nc1ccc2[nH]c(=O)[nH]c2c1	7.5 µg/mL (≈ 20.7 µM)
CCC(C)NC(=O)Cn1nc(Cc2ccncc2)c2ccccc2c1=O (stereo not given)	> 52.6 µg/mL
O=C(NC(=S)Nc1cc([N+](=O)[O-])ccc1O)c1cccnc1	13.5 µg/mL (≈ 42.4 µM)
Cc1cc(Cl)ccc1OC(C)C(=O)NC(C)C1CCCO1 (stereo not given)	> 46.8 µg/mL
Cc1ccc(Cc2cnc(NC(=O)C3=NCCN3)s2)cc1	11.5 µg/mL (≈ 38.3 µM)
COc1ccc(CCNC(=O)Oc2ccccc2)cc1OC	42.9 µg/mL (≈ 142 µM)
COc1ccc(S(=O)(=O)Nc2ccccc2C(N)=O)cc1OC	47.5 µg/mL (≈ 141 µM)
Cc1csc(SCC(=O)NC(=O)NCCC(C)C)n1	22.6 µg/mL (≈ 75 µM)
COc1ccccc1/C=C(\C)C(=O)c1c(C)cc(C)[nH]c1=O	> 44.6 µg/mL
NS(=O)(=O)c1ccc(CNC(=O)Cc2cccs2)cc1	45.1 µg/mL (≈ 145 µM)
Cc1cccc(NC(=O)CCN2CC(C)CC(C)C2)c1.Cl (stereo not given)	> 46.6 µg/mL
S=C(c1ccc(-c2cccc(Cl)c2)o1)N1CCCCC1	6.1 µg/mL (≈ 19.9 µM)
C=CCn1cnnc1SCC(=O)Nc1cccnc1Cl	> 46.5 µg/mL
Cc1cc(C(=O)COC(=O)CC(NC(N)=O)c2ccc(Cl)cc2)c(C)n1C (stereo not given)	29.2 µg/mL (≈ 74.5 µM)
COc1cc(/C=C/C(=O)OC(C)C(=O)Nc2ccc(Cl)cn2)ccc1OC(F)F (stereo not given)	2.8 µg/mL (≈ 6.56 µM)
Cc1ccc(F)cc1NC(=O)CSc1ncccn1	> 41.6 µg/mL
Cc1ccc(S(=O)(=O)n2cnc(C)c2)cc1	> 35.4 µg/mL
Cc1ccc(C(=O)N/C(=C\c2ccco2)C(=O)N2CC(C)OC(C)C2)cc1C (stereo not given)	> 57.4 µg/mL

SMILES	solubility kinetic
CC1(C)CSC(=NCCc2ccccc2)N1	> 35.2 µg/mL
O=C(NCc1ccccn1)C(=O)Nc1nc(-c2ccccc2)cs1	1.6 µg/mL (≈ 4.73 µM)
Cc1ccnc(N2CCCC(C(=O)Nc3cccc(C)c3C)C2)n1 (stereo not given)	0.6 µg/mL (≈ 1.85 µM)
CCOC(=O)c1ccc(NC(=S)Nc2cc(C)cc(C)n2)cc1	< 0.2 µg/mL
Cc1nc2ccc(Cl)cc2nc1C	9.4 µg/mL (≈ 48.8 µM)
O=C(COc1ccccc1F)Nc1ccc2[nH]c(=O)[nH]c2c1	4.5 µg/mL (≈ 14.9 µM)
Cc1c(C)n(-c2ccccc2)c2ncnc(NCCN(C)C)c12	> 46.4 µg/mL
COc1ccc(C(=O)n2cnc3ccccc32)cc1	> 37.8 µg/mL
COc1cc(C)nc(-n2nc(C)cc2OC)n1	> 35.1 µg/mL
COC(=O)c1ccc(N2CCN(C(C)=O)CC2)c(NC(=O)c2cccnc2)c1	> 57.4 µg/mL
COc1cccc(OC)c1C(=O)NC(=O)Oc1c(F)cccc1F	43.8 µg/mL (≈ 130 µM)
CN(C(=O)Cn1cc(C#N)c2ccccc21)c1ccccc1	7.4 µg/mL (≈ 25.6 µM)
Cc1cccn2c(=O)nc(SCC(=O)N3CC(C)OC(C)C3)nc12 (stereo not given)	51.7 µg/mL (≈ 148 µM)
CN(C)c1cccc2c(S(=O)(=O)N3CCCC3)cccc12	34 µg/mL (≈ 112 µM)
O=C(Nc1ccccc1)C(=O)c1c[nH]c2ccccc12	0.8 µg/mL (≈ 3.03 µM)
O=C(COC(=O)Cc1ccsc1)Nc1cccc(Cl)c1	> 46.5 µg/mL
CC12CC(O)C3c4ccc(O)cc4CCC3C1CC/C2=N\O (stereo not given)	> 45.2 µg/mL
Cc1ccc(C(=O)NCC(=O)Nc2ccncc2)cc1C	12.3 µg/mL (≈ 43.4 µM)
O=C(/C=C/c1ccc(-c2ccc(F)cc2)o1)N1CCCC1	31.7 µg/mL (≈ 111 µM)
Cc1ccc2c(c1)N(Cc1cccc(C#N)c1)C=NS2(=O)=O	8.1 µg/mL (≈ 26 µM)
O=C(Nc1ccccc1)C1CC(=O)n2c(nc3ccccc32)N1 (stereo not given)	0.9 µg/mL (≈ 2.94 µM)
Cc1cc(C)nc(NC(=O)c2ccccc2O)n1	> 36.5 µg/mL

SMILES	solubility kinetic
COc1ccc(N2CC(NC(=O)N(C)CCC#N)CC2=O)cc1 (stereo not given)	46.7 µg/mL (≈ 148 µM)
O=C(COC(=O)c1ccc(O)cc1)NC(c1ccccc1)c1ccccc1	1.7 µg/mL (≈ 4.7 µM)
COCC(=O)Nc1ccccc1-c1ccccc1	> 36.2 µg/mL
COCCN(C(=S)Nc1ccc(C)cc1C)C(C)c1cccs1 (stereo not given)	7.7 µg/mL (≈ 22.1 µM)
Cc1onc(-c2ccccc2Cl)c1C(=O)N1CCCC1	> 43.6 µg/mL
Cn1cc(C(=O)C(=O)NCCc2ccccc2)c2ccccc21	0.6 µg/mL (≈ 1.96 µM)
Cn1c(=O)c2[nH]c(C3CCCC3)nc2n(C)c1=O	> 37.2 µg/mL
CSCCOC(=O)C1=C(C)NC(=O)NC1c1ccc2c(c1)OCO2 (stereo not given)	> 52.6 µg/mL
COc1ccc(C(=O)O/N=C(/c2ccccc2)c2ccncc2)cc1	5.6 µg/mL (≈ 16.8 µM)
CCC(C)NC(=O)CSc1ccc(S(=O)(=O)N(C)C2CCCCC2)cn1 (stereo not given)	59.4 µg/mL (≈ 149 µM)
N#Cc1ccc(C(=O)OCC(=O)Nc2cccc(S(=O)(=O)NC3=NCCC3)c2)cc1	> 64 µg/mL
O=C1NC(C(=O)O)=CC(c2ccc([N+](=O)[O-])cc2)N1 (stereo not given)	> 39.5 µg/mL
S=c1[nH]ccn1-c1ccccc1Cl	> 31.6 µg/mL
O=C(NCC1COc2ccccc2O1)c1cccs1 (stereo not given)	39.7 µg/mL (≈ 144 µM)
Cc1ccc(OCCCCCCN2CCNCC2)cc1.O=C(O)C(=O)O	> 55 µg/mL
Cc1onc(-c2ccccc2)c1C(=O)N(C)CCc1ccccn1	> 48.2 µg/mL
O=S(=O)(NCc1ccco1)c1ccc(Cl)s1	> 41.7 µg/mL
COc1ccc(OC)c(Nc2nc(NCc3ccco3)nc(N)c2[N+](=O)[O-])c1	< 0.1 µg/mL
Cl.O=C(c1cc2c(s1)CCCC2)N1CCN(CCO)CC1	> 49.6 µg/mL
